Results: patent US4748161A, “Triterpenyl esters of organic acids and hypolipidemic agents composed of them” (Amano Pharmaceutical Co., Ltd., priority 1984, dated 1988)

Test system: serum lipids and serum lipid hydroperoxide
Assay: Pharmacological test method A for anti-hyperlipidemic activity (serum lipids, 2 weeks feeding)
Type: in vivo, male Wistar strain rats
Conditions: for AI [(TC - HDL-C)/(HDL-C)] / HDL-C in serum / LPO in serum / PL in serum / TC in serum / TG in serum: 1% in hyperlipidemic diet, 2 weeks
Method: Male Wistar strain rats (100±lg, each 10 rats were formed into a group) were used as test animals. Diet for the control group was prepared by thorough mixing of 20% casein, 62.5% glucose, 10% hydrogenated coconut oil, 2% agar powder, 4% vitamin-containing salt mixture, 1% cholesterol, and 0.5% cholic acid (this composition is described by Fukushima et al, in "Yakugaku Zassi", 89, No. 6, pp. 857-862 (1962)). Diet for the test groups was prepared by good mixing of 1% each of cycloartenol, 24-methylenecycloartanol, and cyclobranol with the control group's diet. Each rat was kept in a cage at a constant temperature of 23±1° C. and a constant R.H. of 55±5% for 2 weeks, during which 10 g/day of the prescribed was given. Finally the rats were fasted from food except water for 16 hours (from 4 p.m. of the 14th test day to 8 a.m. of the 15th test day), and under anesthesia with pentbarbital sodium (tradename: Nembutal), blood was taken from each rat through the descending abdominal arota. Then, TC, HDL-C, TG, PL, and LPO in the serum were measured in the manner that will be described below.
A TC kit-K (supplied by Nippon Shoji Kaisha, Ltd.) was used. The principle of this determination is as follows: The ester of cholesterol in the serum is hydrolyzed with cholesterol-ester hydrolase into free cholesterol and fatty acids. All the free cholesterol is oxidized with cholesterol oxydase to form Δ^4 -cholestenone and hydrogen peroxide. Phenol and 4-aminoantipyrin are oxidatively condensed together by the formed hydrogen peroxide and peroxydase. The produced red quinone coloring matter is measured by colorimetry for absorbance at 500 nm using a spectrophotometer, thereby determining the TC:
The color-developing liquid (3.0 ml) is well mixed with the sample serum (0.02 ml). The mixture once heated at 37° C. for 15 minutes, is measured for absorbance at 500 nm with a spectrophotometer. The found absorbance is denoted by EA. On the other hand, the color-developing liquid (3.0 ml) is well mixed with the standard solution. The mixture is treated and measured for absorbance at 500 nm in the same manner as the above. This found absorbance is denoted by ES. Both EA and ES are determined with reference to the value of the blank test conducted using the color-developing liquid (3.0 ml) alone. [formula]
An HDL-C kit-N (supplied by Nippon Shoji Kaisha, Ltd.) was used. […] (VLDL) and lo density lipoprotein (LDL) in the serum is precipitated by the action of heparin. The precipitate is separated by centrifugation. High density lipoprotein (HDL) is dissolved in the separated supernatant. Esters of cholesterol in this fraction is hydrolyzed with cholesterol-ester hydrolase into free cholesterol and fatty acids. All the free cholesterol is oxidized with cholesterol oxydase to form Δ^4 -cholestenone and hydrogen peroxide. Phenol and 4-aminoantipyrine are oxidatively condensed together by the formed hydrogen peroxide and peroxydase. The produced red quinone coloring matter is measured by colorimetry for absorbance at 500 nm using a spectrophotometer, thereby determining the HDL-C.
A PL kit-K (supplied by Nippon Shoji Kaisha, Ltd.) was used for the determination. Lecithin, sphingomyelin, and lysolecithin are decomposed by phospholipase D into choline and phosphatidic acid, N-acylsphingosyl phosphate, or lysophosphatidic acid, respectively. The resulting choline is quantitatively decomposed by choline oxydase into hydrogen peroxide and betaine. With this hydrogen peroxide, and aid of peroxydase, phenol and 4-aminoantipyrin are condensed into red quinone pigment, then the absorbance at 500 nm of which is measured with a spectrophotometer, thereby determining the PL.
Serum TG level was determined by means of a triglyceride test kit (supplied by Wako Pure Chemical Industries, Ltd.) in which acetylacetone is used for a reagent, in the following manner: Serum proteins are precipitated, when isopropyl alcohol and the sample serum are mixed. […]

Compound	AI [(TC - HDL-C)/(HDL-C)]	HDL-C in serum [mg/dL]	LPO in serum [nmol/mL]	PL in serum [mg/dL]	TC in serum [mg/dL]	TG in serum [mg/dL]	AI % of diff. (versus control group)	AI Diff. (versus control group)	HDL-C % of diff. (versus control group)	HDL-C Diff. (versus control group)	LPO % of diff. (versus control group)	LPO Diff. (versus control group)	PL % of diff. (versus control group)	PL Diff. (versus control group)	TC % of diff. (versus control group) [%]	TC Diff. (versus control group) [mg/dL]	TG % of diff. (versus control group)	TG Diff. (versus control group)	AI Diff. (Table 2, versus control group)
CCOc1cc(C=CC(=O)OC2CCC34CC35CCC3(C)C(C(C)CCC(C)=C(C)C)CCC3(C)C5CCC4C2(C)C)ccc1O (centres unmarked) [Example 71, cyclobranyl-3-ethoxy-4-hydroxycinnamate]	0.523	106.0	1.96	157.7	161.4	32.9	-47.8%	-0.479	+10.2%	+9.8 mg/dl	-15.9%	-0.37 nmol/mL	-12.8%	-23.2 mg/dL	16.2	-31.2	-2.8%	-0.9 mg/dL	
CC(C)=CCCC(C)C1CCC2(C)C3CCC4C(C)(C)C(OC(=O)c5ccc(O)c(O)c5)CCC45CC35CCC12C (centres unmarked) [Example 27, cycloartenyl-3,4-dihydroxybenzoate]	0.955	95.2	1.99	160.3	186.1	40.4	-43.3%	-0.729	+17.7%	+14.3 mg/dl	-14.0%	-0.32 nmol/mL	-10.8%	-19.4 mg/dL	-14.3	-31.0	-5.5%	-2.4 mg/dL	
CCOc1cc(C(=O)OC2CCC34CC35CCC3(C)C(C(C)CCC=C(C)C)CCC3(C)C5CCC4C2(C)C)ccc1O (centres unmarked) [Example 60, cycloartenyl-3-ethoxy-4-hydroxybenzoate]	0.609	102.5	1.98	161.4	164.9	32.8	-39.2%	-0.393	+6.5%	+6.3 mg/dl	-15.0%	-0.35 nmol/mL	-10.8%	-19.5 mg/dL	14.4	-27.7	-1.2%	-0.4 mg/dL	
C=C(CCC(C)C1CCC2(C)C3CCC4C(C)(C)C(OC(=O)C=Cc5cccc(N)c5)CCC45CC35CCC12C)C(C)C (centres unmarked) [Example 112, 24-methylenecycloartanyl ester of m-aminocinnamic acid]	3.624	46.8	2.16	150.4	216.4	28.5	-53.8%	-4.216	+26.8%	+9.9 mg/dl	-22.9%	-0.64 nmol/mL		-15.2 mg/dL	-33.7	-109.8	-16.2%	-5.5 mg/dL	
Cycloartenyl-3,4-dipropionyloxycinnamate [Example 3]	1.605	76.8	2.40	167.0	200.1	33.3	+5.8%		-5.8%	-4.7 mg/dL	+5.8%	+0.13 nmol/ml	-3.8%	-6.6 mg/dL	-2.4	-5.0	-2.9%	-1.0 mg/dL	+0.088 mg/dl
CC(C)=CCCC(C)C1CCC2(C)C3CCC4C(C)(C)C(OC(=O)C=Cc5cccc(N)c5)CCC45CC35CCC12C (centres unmarked) [Example 108, cycloartenyl ester of m-aminocinnamic acid]	3.627	46.6	2.20	151.4	215.6	29.0	-53.7%	-4.213	+26.3%	+9.7 mg/dl	-21.4%	-0.60 nmol/mL	-8.6%	-14.2 mg/dL	-33.9	-110.6	-14.7%	-5.0 mg/dL	
C=C(CCC(C)C1CCC2(C)C3CCC4C(C)(C)C(OC(=O)C=Cc5ccc(O)c(OC)c5)CCC45CC35CCC12C)C(C)C (centres unmarked) [Example 100-3, 24-methylenecycloartanyl-4-hydroxy-3-methoxycinnamate]	1.393	73.8	1.89	152.9	176.6	35.1	-8.2%	-0.124	-9.4%	-7.7 mg/dL	-16.7%	-0.38 nmol/mL	-11.9%	-20.7 mg/dL	-13.9	-28.5	+2.3%	+0.8 mg/dl	
CC(C)=CCCC(C)C1CCC2(C)C3CCC4C(C)(C)C(OC(=O)c5ccccc5O)CCC45CC35CCC12C (centres unmarked) [Example 8, cycloartenyl-o-hydroxybenzoate]	0.759	101.1	2.01	148.8	177.8	41.3	-54.9%	-0.925	+25.0%	+20.2 mg/dl	-13.0%	-0.30 nmol/mL	-17.2%	-30.9 mg/dL	-18.1	-39.3	-3.5%	-1.5 mg/dL	
cycloartenyl-3,4-diacetoxycinnamate [Example 1]	1.410	72.0	2.03	173.7	173.5	38.0	-7.1%		-11.6%	-9.5 mg/dL	-10.6%	-0.24 nmol/mL	+0.06%	+0.1 mg/dl	-15.4	-31.6	+10.9%	+3.7 mg/dl	-1.107 mg/dL
